91 molecules from the OPERA property sets (Mansouri et al. 2018) can be followed below.

Details in one data set: not given
By boiling point is commonly meant the temperature of boiling at a given pressure. One may read the melting point as the temperature of the solid-liquid transition. As for `C1=CC=CC=CC=C1`, the boiling point worked out at 140 °C, the log10 vapour pressure (mmHg) is 0.892 and the melting point is -4.7 °C.

`COc1ccc2c(c1O)-c1cccc3c1C(C2)N(C)CC3` (centres undefined): the melting point was found to be 124 °C.

`CC(=O)COc1ccccc1`: the boiling point turned out to be 230 °C.

Consider `C=CCCCCCCCC`, for which the boiling point was found to be 170 °C, the log10 vapour pressure (mmHg) was 0.223 and the melting point is -66.3 °C.

The molecule `CN(C)C(=O)Oc1ccc[n+](C)c1.[Br-]` yielded a melting point of 153 °C.

`Clc1ccc2cc(Cl)ccc2c1` gave a boiling point of 285 °C and a melting point of 140 °C.

The molecule `NC(=O)C1c2ccccc2CCc2ccccc21` displayed a melting point of 194 °C.

Molecule `O=P(O)(O)c1ccccc1` came in with a melting point of 164 °C.

As to `CC(CCCC(=O)O)C(=O)O` (centres undefined), the melting point was 64 °C.

Consider `CCOC(=O)c1ccccc1C(=O)c1ccccc1`, for which the melting point stood at 59.5 °C.

For `CC(C)N(C(=O)SCC(Cl)=C(Cl)Cl)C(C)C`, the log10 Koc (L/kg) was 3.35, the log10 vapour pressure (mmHg) was -3.92 and the melting point came to 29 °C.

`CCc1cccc(C(C)C)c1` yielded a boiling point of 192 °C.

For `C=CCCCCCCCCC(=O)OC`, the boiling point stood at 248 °C and the melting point was -27.5 °C.

Take `CCC(C)c1ccccc1O` (centres undefined): the boiling point worked out at 228 °C, the melting point is 16 °C and the ready biodegradability result is “not readily biodegradable”.

In turn, `CC(C)CCS` returned a boiling point of 120 °C and a log10 vapour pressure (mmHg) of 1.31.

Turning to `CNC(=C[N+](=O)[O-])NCCSCc1ccc(CN(C)C)o1`, the melting point stood at 69.5 °C.

For the molecule `c1ccc2c(N=Nc3cccc4ccccc34)cccc2c1`, the melting point came to 190 °C.

On to `COc1cc2nc(N3CCN(C(=O)C4CCCO4)CC3)nc(N)c2cc1OC` (centres undefined), for which the melting point was 273 °C.

On to `CCOC(=O)C(Br)(Br)Br`, for which the boiling point was determined as 225 °C.

Molecule `COc1ccc(C)cc1C` yielded a boiling point of 192 °C.

With `COC(C)(C)CC(C)=O`, the boiling point came out at 160 °C, the log10 vapour pressure (mmHg) came to 0.342 and the ready biodegradability entry was “not readily biodegradable”.

Turning to `C=CC1CCC(O)C(O)C1` (centres undefined), the ready biodegradability entry is given as “not readily biodegradable”.

In the case of `Cc1cccc2ccc(Cl)nc12`, the boiling point was 287 °C and the melting point stood at 61 °C.

`O=C(Cl)N(c1ccccc1)c1ccccc1` returned a melting point of 83 °C.

`COc1ccc(CN)cc1` gave a boiling point of 236 °C.

For `Brc1cc(Br)c(-c2c(Br)cc(Br)cc2Br)c(Br)c1`, the log10 Koc (L/kg) was 4.87.

Turning to `CN(C)CCc1ccc(O)cc1`, the melting point came out at 118 °C.

Consider `FC(F)(F)N1C(F)(F)C(F)(F)OC(F)(F)C1(F)F`, for which the boiling point was 51 °C and the melting point was -80 °C.

The molecule `CCCCCCCCCCCCNC(=N)N` showed a melting point of 136 °C.

Molecule `CC(=O)NC(Cc1c[nH]c2ccccc12)C(=O)O` (centres undefined) registered a melting point of 190 °C.

Consider `CCCCCCCCOC=O`, for which the boiling point was 199 °C and the melting point was -39.1 °C.

`C=CCN=C(S)NCCO` yielded a melting point of 78 °C.

As to `C[C@]12CCC(=O)C=C1CC[C@@H]1[C@@H]2CC[C@@]2(C)[C@H]1CC[C@]2(O)C(=O)CO`, the melting point was determined as 215 °C.

Consider `O=CC1CCCC1`, for which the boiling point is 134 °C.

With `CC(C)(Cl)C=O`, the boiling point stood at 90 °C.

Molecule `Cc1ccc2c(C)c(C)ccc2c1` had a melting point of 14 °C.

The molecule `COS(=O)(=O)c1ccc([N+](=O)[O-])cc1` came in with a melting point of 94 °C.

With `CC/C=C\CCCC`, the boiling point stood at 123 °C and the melting point was -118 °C.

The molecule `COc1ccccc1Br` came in with a boiling point of 216 °C and a melting point of 2.5 °C.

For the molecule `CC(C)C1=CC2=CC[C@@H]3[C@](C)(CCC[C@@]3(C)C(=O)O)[C@H]2CC1`, the melting point stood at 174 °C and the ready biodegradability entry is on record as “not readily biodegradable”.

For `c1cocn1`, the boiling point was 69.5 °C and the log10 vapour pressure (mmHg) was 2.12.

The molecule `C[C@@]12CCC[C@H]1[C@@H]1CC[C@H]3CCCC[C@]3(C)[C@H]1CC2` registered a melting point of 64.6 °C.

On to `CCC(=O)Nc1nc(C)c(Cl)s1`, for which the melting point turned out to be 159 °C.

For `Clc1ccc(Cl)c2c(Cl)ccc(Cl)c12`, the log10 Koa stood at 8.45.

In the case of `OC[C@H]1O[C@H](OC[C@H]2O[C@H](O)[C@H](O)[C@@H](O)[C@@H]2O)[C@H](O)[C@@H](O)[C@H]1O`, the melting point was determined as 86 °C.

Consider `FC(F)(Cl)CBr`, for which the boiling point was determined as 68.4 °C and the melting point was -76 °C.

Turning to `CN(C)N=O`, the boiling point amounted to 154 °C, the log10 vapour pressure (mmHg) came out at 0.431 and the ready biodegradability result is listed as “not readily biodegradable”.

With `CCCOP(OCCC)OCCC`, the boiling point came to 206 °C.

For the molecule `O=C(O)c1cc(Cl)cc(Cl)c1O`, the melting point came to 220 °C.

`Cc1cc(C)c2ccccc2n1`: the boiling point worked out at 265 °C and the log10 vapour pressure (mmHg) was -2.1.

As for `C=CCC1(c2ccccc2)C(=O)NC(=O)NC1=O`, the melting point was 156 °C.

On to `CCCCCCCCCCCCCCCCCCC(=O)O`, for which the boiling point was 300 °C and the melting point worked out at 69.4 °C.

The molecule `C=C(CC)c1ccccc1` had a boiling point of 182 °C.

On to `c1ccc2c(c1)Cc1ccccc1O2`, for which the boiling point was found to be 311 °C and the melting point came out at 100 °C.

As for `Nc1ncnc2[nH]cnc12`, the log10 vapour pressure (mmHg) is -10.4.

`Clc1cc(Cl)c2oc3c(Cl)c(Cl)cc(Cl)c3c2c1` had a melting point of 204 °C.

Consider `CCCCCCCCNCCCCCCCC`, for which the boiling point is 298 °C, the melting point turned out to be 35.5 °C and the ready biodegradability result is “readily biodegradable”.

As for `Oc1ccccc1Cc1ccccc1O`, the ready biodegradability entry is on record as “not readily biodegradable”.

In the case of `CC(=O)OCCCCOC(C)=O`, the boiling point is 229 °C and the melting point came to 12 °C.

Consider `O=Cc1ccccc1[N+](=O)[O-]`, for which the log10 vapour pressure (mmHg) is -1.75 and the melting point was determined as 43.5 °C.

As for `CCCC(=O)CC`, the boiling point was determined as 124 °C, the log10 vapour pressure (mmHg) was determined as 1.14, the melting point is -55.5 °C and the ready biodegradability entry is “not readily biodegradable”.

The molecule `O=C(O)c1ccc2ccccc2c1O` had a melting point of 195 °C.

`Cc1cc(C)c(N(C)C)c(C)c1` gave a boiling point of 214 °C.

`CCOCc1ccco1` had a boiling point of 149 °C.

Molecule `O=S(Cc1ccccc1)Cc1ccccc1` came in with a melting point of 134 °C.

With `Cc1ccc(C)c(C=O)c1`, the boiling point turned out to be 220 °C.

`c1ccc(C2OCCCO2)cc1` had a boiling point of 253 °C and a melting point of 41 °C.

Molecule `Cc1ccc(Nc2ccc(C)cc2)cc1` registered a boiling point of 330 °C and a melting point of 79.8 °C.

As for `CCCCCC(C)(C)O`, the boiling point came to 156 °C and the melting point was -50.4 °C.

The molecule `C1CCCSCC1` came in with a boiling point of 174 °C and a melting point of 0.5 °C.

On to `CC(=O)C(C)=O`, for which the boiling point came out at 88 °C, the log10 Henry constant (atm·m³/mol) is -4.88, the log10 vapour pressure (mmHg) worked out at 1.75 and the melting point is -1.2 °C.

On to `Cc1c(C(C)OC(=O)CCC(=O)O)oc2ccc(C3=CC(=O)OC3)cc12` (centres undefined), for which the melting point was found to be 144 °C.

As for `COP(=O)(OC)OC(Br)C(Cl)(Cl)Br` (centres undefined), the log10 Koc (L/kg) amounted to 2.26, the log10 vapour pressure (mmHg) is -3.7 and the melting point was determined as 27 °C.

The molecule `CCc1ccc(O)cc1O` had a melting point of 98.5 °C.

In the case of `CCCCNC(=O)NS(=O)(=O)c1ccc(N)cc1`, the melting point was determined as 144 °C.

Consider `CC(C)(O)C(=O)O`, for which the boiling point was found to be 212 °C, the log10 vapour pressure (mmHg) is -2.06 and the melting point was 82.5 °C.

`CCCCCC(=O)OCC`: the boiling point is 167 °C, the log10 Koc (L/kg) turned out to be 2.06 and the melting point is -67 °C.

The molecule `C=CCc1cc2c(c(OC)c1OC)OCO2` registered a boiling point of 285 °C and a melting point of 29.5 °C.

In the case of `C=CC(C)(C)CC`, the boiling point turned out to be 77.5 °C, the log10 vapour pressure (mmHg) was 2.02 and the melting point is -134 °C.

`Cc1ccc(Br)cc1N` came in with a melting point of 33 °C.

In turn, `CCOCC(C)C` had a boiling point of 81 °C.

`O=C1C(=O)c2ccccc2-c2ccccc21` returned a boiling point of 360 °C and a melting point of 209 °C.

Molecule `Cc1ccc2ccc(C)nc2c1` returned a boiling point of 264 °C and a melting point of 61 °C.

In turn, `CCC1(CC)C(=O)C=CNC1=O` registered a melting point of 90.7 °C.

For `CC(=O)N[C@@H](CCC(=O)O)C(=O)O`, the melting point worked out at 199 °C.

In the case of `O=Cc1cccc(O)c1O`, the boiling point worked out at 235 °C and the melting point was found to be 108 °C.

For the molecule `Clc1ccc2c(Cl)c(Cl)cc(Cl)c2c1`, the log10 Koa was determined as 8.08.

The molecule `CC(=O)c1ccccn1` returned a boiling point of 192 °C.

For the molecule `CC(C)CCCCCCOC(=O)c1ccccc1C(=O)OCCCCCCC(C)C`, the ready biodegradability entry was “readily biodegradable”.

For `NC1CCCCCCC1`, the boiling point amounted to 190 °C and the melting point is -48 °C.

On to `CCOC(=O)C(C)(C)Br`, for which the boiling point was determined as 163 °C and the log10 vapour pressure (mmHg) turned out to be 0.417.

Still in this data set, the particulars now being: fish.
Consider `C=CCCCCCCCC`, for which the log10 biotransformation half-life (days) amounted to 0.65.

`Brc1cc(Br)c(-c2c(Br)cc(Br)cc2Br)c(Br)c1` returned a log10 BCF of 4.66 and a log10 biotransformation half-life (days) of 2.66.

`CC(C)C1=CC2=CC[C@@H]3[C@](C)(CCC[C@@]3(C)C(=O)O)[C@H]2CC1` yielded a log10 BCF of 1.97.
